Patent US12383556B2, “Methods of treating Sjögren's syndrome using a Bruton's tyrosine kinase inhibitor” (NOVARTIS AG, priority 2019, dated 2025)

Test system: BTK
Experiment: BTK occupancy ex vivo immunoassay (biotinylated BTK probe) in tissues after oral dosing
Design: species or system rat
Conditions: spleen of rodents
Description: The in vivo PD effects of an irreversible BTK inhibitor like compound (I) are determined by the extent and duration of covalent BTK occupancy by the inhibitor. BTK occupancy after treatment with Compound of Formula (I) (also referenced to as Compound (I)) was measured in an ex vivo immunoassay. The fraction of unoccupied BTK protein was assayed after in vitro incubation with a covalent biotinylated BTK probe, since compound (I) and the probe bind to BTK in a mutually exclusive manner. Unoccupied BTK, as well as total BTK relative protein levels were determined in lysates of selected tissues and levels of unoccupied BTK were normalized to total BTK protein levels in the same samples.
From the experimental data it was apparent that a short transient systemic exposure of compound (I) is sufficient to achieve full BTK occupancy in several tissues at low oral doses of 1-3 mg/kg. […] This very low and transient systemic exposure is consistent with the PK/PD model typical of irreversible inhibitors.
The duration of BTK occupancy was determined in rats and mice after single oral dose of compound (I) for spleen, blood, lymph nodes and lung. […] The longer persistence of BTK occupancy in blood has been reported before (Advani et al 2013, J Clin Onc; 31(1):88-94).

C=CC(=O)N(C)CCOc1c(N)ncnc1-c1cc(F)cc(NC(=O)c2ccc(C3CC3)cc2F)c1C [Compound of Formula (I), N-(3-(6-Amino-5-(2-(N-methylacrylamido)ethoxy)pyrimidin-4-yl)-5-fluoro-2-methylphenyl)-4-cyclopropyl-2-fluorobenzamide]
BTK turnover in tissue (spleen): approximately 5 hours
